Laboratory results taken from patent US20260217863A1, “ANTIBODY OR PEPTIDE BINDING SPECIFICALLY TO RNASE A, IMMUNOASSAY DEVICE AND METHOD FOR DETECTING RNASE A, AND METHOD FOR COLLECTING RNASE A” (UIF (University Industry Foundation), Yonsei University, priority 2022, published 2026).
Where no end group is shown, it is not given here.

Molecular target: T1, RNase A (Bos taurus, UniProt P61823)
T1 sequence (P61823 27-150): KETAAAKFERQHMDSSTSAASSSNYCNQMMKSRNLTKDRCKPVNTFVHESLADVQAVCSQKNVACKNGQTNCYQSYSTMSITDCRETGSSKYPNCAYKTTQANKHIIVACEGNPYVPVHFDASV
Assay: cCMP hydrolysis assay of RNase A inhibition (absorbance 286 nm)
Type: biochemical, bovine
Design: Ribonuclease A (Type II-A) from bovine pancreas; purchased Sigma-Aldrich Korea; host or cells: bovine pancreas
Details: inhibitor 0.1 nM to 1 μM, linear regression
Method: The analysis of RNase A activity inhibition based on 2′,3′-cyclic CMP (cCMP) was performed by measuring the absorbance of cCMP at a wavelength of 286 nm. A mixture was prepared by combining Tris-acetate buffer (500 mM, pH=6.5, 200 μL), EDTA (5 mM, 200 μL), 2′,3′-cCMP (10 mM, 100 μL), RNase A (10 μg/mL, 100 μL), Fv variant (or synthetic peptides in the concentration range of 0.1 nM-1 μM), and DW (filled up to 1000 μL). The absorbance at 286 nm was measured using a Lamda35 UV-VIS spectrophotometer (Perkin-Elmer, MA, USA). The reaction was initiated by adding RNase A to the mixture, and the absorbance was measured every 3 minutes for a total of 30 minutes.
RNase A is known to degrade RNA by cleaving the phosphodiester bonds between nucleotides. The cleavage of the phosphodiester bonds occurs through a two-step reaction: (1) the formation of a […] and (2) the subsequent degradation of a 2′,3′-cyclic phosphate intermediate. […] Specifically, it was utilized that the absorbance at 286 nm quantitatively increases as 3′-CMP increases due to the hydrolysis of cCMP, as shown in FIG. 13. […] The inhibition curves of the Fv antibodies were plotted linearly, and the IC50 values were calculated by linear regression, as shown in FIG. 15. […]
The analysis of RNase A activity inhibition based on 2′,3′-cyclic CMP (cCMP) was performed by measuring the absorbance of cCMP at a wavelength of 286 nm. […] The absorbance at 286 nm was measured using a Lamda35 UV-VIS spectrophotometer (Perkin-Elmer, MA, USA). The reaction was initiated by adding RNase A to the mixture, and the absorbance was measured every 3 minutes for a total of 30 minutes.
RNase A is known to degrade RNA by cleaving the phosphodiester bonds between nucleotides. […] Specifically, it was utilized that the absorbance at 286 nm quantitatively increases as 3′-CMP increases due to the hydrolysis of cCMP, as shown in FIG. 13. […] The inhibition curves of the Fv antibodies were plotted linearly, and the IC50 values were calculated by linear regression, as shown in FIG. 15.

Sequence | IC50
CGPDSDVMTDF [Peptide-1] | 0.607 µM
YGPVGRVKRDD [Peptide-2] | 0.373 µM
DGTAKKSRKDD [Peptide-3] | 0.356 µM
